Values quoted from earlier work, collected in paper PMC7745548 (International Journal of Tryptophan Research : IJTR, 2020).

Legend:
[1] = test system: CYP2C9; conditions: O-demethylation major pathway
[2] = test system: CYP1A2
[3] = test system: human microsomal P450 1A2 (CYP1A2); conditions: different crystal structure (PDB code: 1FAG) ref 26, 28

SMILES | Metabolism by CYP2C9 [1] | Metabolism by CYP1A2 [2] | Distance between SOM and Fe(II) ion of heme [3] [Å]
COc1ccc2c(c1)c(CC(=O)O)c(C)n2C(=O)c1ccc(Cl)cc1 [Indomethacin] | mainly metabolised by CYP2C9 | only slightly metabolised by CYP1A2 | 
COc1ccc2[nH]cc(CCNC(C)=O)c2c1 [MLT, N-acetyl-5-methoxytryptamine] |  |  | 4.15
